Drawing on EP0371837A2, “Process for the synthesis of esters of dithiocarbamic acids by substitution of hydroxylated positions of mono- or polyhydroxylated molecules, products of this process and their uses” (PASTEUR MERIEUX SERUMS ET VACCINS, priority 1988, dated 1990), this text covers toxicité and activité for one compound.

A short description of data set [1]: Toxicity of lithium dithiocarbamates (method not described). The conditions noted are these: statement in words, no test described.
The nature of data set [2]: Activity of lithium dithiocarbamates (method not described). The conditions noted are these: statement in words, no test described; same applications as the esters (immunomodulator, antiviral).

Take `CCN(CC)C(=S)S` [diéthyldithiocarbamate de lithium, N,N diéthyl dithiocarbamate de lithium]: the toxicité entry in data set [1] is “peu toxiques”. Besides, the activité entry in data set [2] is “très actifs”.
